# Experiments:
# Format in all cases: in vivo
# [1] = tested on: TRZAW = Triticum aestivum (winter wheat); assay: Greenhouse post-emergence phytotoxicity (% visual injury) on wheat
# Procedure: (§1) In addition, the efficacy of the herbicidal composition on wild mustard (SINAR), wild chamomile (MATCH), wild pansy (VIOTR), shepherd's purse ([…]), pigweed (AMARE), and Canada thistle (CIRAR) was evaluated. […] When required to ensure good germination and healthy plants, a fungicide treatment and/or other chemical or physical treatment was applied. The plants were grown for 7-36 days (d) in a greenhouse with an approximate 14-hour (h) photoperiod which was maintained at about 18° C. during the day and 17° C. during the night. Nutrients and water were added on a regular basis and supplemental lighting was provided with overhead metal halide 1000-Watt lamps as necessary. The plants were employed for testing when they reached the second or third true leaf stage. Weighed amounts of technical material were dissolved in a volume of 97:3 volume per volume (v/v) acetone/dimethyl sulfoxide (DMSO) to stock solutions. […] Stock solutions of the safeners were prepared following the same procedure. […] Control plants were sprayed in the same manner with the solvent blank. The treated plants and control plants were placed in a greenhouse as described above and watered by sub-irrigation to prevent wash-off of the test compounds. […] Colby's equation was used to determine the herbicidal effects expected from the mixtures.
# [2] = tested on: HORVS = Hordeum vulgare (spring barley); assay: Greenhouse post-emergence phytotoxicity (% visual injury) on spring barley
# Procedure: as §1
# [3] = tested on: CAPBP = Capsella bursa-pastoris (shepherd's purse); assay: Greenhouse post-emergence efficacy (% visual injury) on shepherd's purse; details: 20-22 d
# Procedure: (§2) The herbicide of formula I-G-A was combined with isoxadifen-ethyl or mefenpyr-diethyl, and applied to spring wheat (TRZAS) and spring barley (HORVS) and the phytotoxicity of the herbicidal composition was measured. In addition, the efficacy of the herbicidal composition on wild mustard (SINAR), wild chamomile (MATCH), wild pansy (VIOTR), shepherd's purse (CAPBP), kochia (KCHSC), lambsquarters (CHEAL), pigweed (AMARE), and Canada thistle (CIRAR) was evaluated. The results for herbicide I-G-A with isoxadifen-ethyl and mefenpyr-diethyl are summarized in Table 7 and Table 8, respectively.
# (§3) Seeds of the desired test plant species were planted in Sun Gro MetroMix® 360 planting mixture, which typically has a pH of 6.0 to 6.8 and an organic matter content of about 30 percent, in plastic pots with a surface area of 103.2 square centimeters (cm^2). When required to ensure good germination and healthy plants, a fungicide treatment and/or other chemical or physical treatment was applied. The plants were grown for 7-36 days (d) in a greenhouse with an approximate 14-hour (h) photoperiod which was maintained at about 18° C. during the day and 17° C. during the night. Nutrients and water were added on a regular basis and supplemental lighting was provided with overhead metal halide 1000-Watt lamps as necessary. The plants were employed for testing when they reached the second or third true leaf stage.
# (§4) Weighed amounts of technical material were dissolved in a volume of 97:3 volume per volume (v/v) acetone/dimethyl sulfoxide (DMSO) to stock solutions. […] Compound requirements are based upon a 12 milliliter (mL) application volume at a rate of 187 liters per hectare (L/ha). Stock solutions of the safeners were prepared following the same procedure. Spray solutions of the safeners and experimental compound mixtures were prepared by adding the stock solutions to the appropriate amount of dilution solution to form a 12 mL spray solution in two-way combinations. Formulated compounds were applied to the plant material with an overhead Mandel track sprayer equipped with 8002E nozzles calibrated to deliver 187 L/ha over an application area of 0.503 square meters (m^2) at a spray height of 18 inches (43 centimeters (cm)) above average plant canopy. Control plants were sprayed in the same manner with the solvent blank.
# (§5) The treated plants and control plants were placed in a greenhouse as described above and watered by sub-irrigation to prevent wash-off of the test compounds. After 20-22 d, the condition of the test plants as compared with that of the control plants was determined visually and scored on a scale of 0 to 100 percent where 0 corresponds to no injury and 100 corresponds to complete kill. Colby's equation was used to determine the herbicidal effects expected from the mixtures.
# [4] = tested on: VIOTR = Viola tricolor (wild pansy); assay: Greenhouse post-emergence efficacy (% visual injury) on wild pansy; details: 20-22 d
# Procedure: as §2, §3, §4, §5
# [5] = tested on: KCHSC = Kochia scoparia (kochia); assay: Greenhouse post-emergence efficacy (% visual injury) on kochia; details: 20-22 d
# Procedure: as §2, §3, §4, §5
# [6] = tested on: CHEAL = Chenopodium album (lambsquarters); assay: Greenhouse post-emergence efficacy (% visual injury) on lambsquarters; details: 20-22 d
# Procedure: as §2, §3, §4, §5
# [7] = tested on: CIRAR = Cirsium arvense (Canada thistle); assay: Greenhouse post-emergence efficacy (% visual injury) on Canada thistle; details: 20-22 d
# Procedure: as §2, §3, §4, §5
# [8] = tested on: SINAR = Sinapis arvensis (wild mustard); assay: Greenhouse post-emergence efficacy (% visual injury) on wild mustard; details: 20-22 d
# Procedure: as §2, §3, §4, §5
# [9] = tested on: MATCH = Matricaria recutita (wild chamomile); assay: Greenhouse post-emergence efficacy (% visual injury) on wild chamomile; details: 20-22 d
# Procedure: as §2, §3, §4, §5
# [10] = tested on: AMARE = Amaranthus retroflexus (pigweed); assay: Greenhouse post-emergence efficacy (% visual injury) on pigweed; details: 20-22 d
# Procedure: as §2, §3, §4, §5
# [11] = safener 20 g ai/ha alone, 20-22 d
# [12] = safener 40 g ai/ha alone, 20-22 d
# [13] = safener 80 g ai/ha alone, 20-22 d
# [14] = herbicide 20 g ae/ha alone, 20-22 d
smiles,measurement,setting,value
"C=CCN(CC=C)C(=O)C(Cl)Cl [dichlormid, N,N-diallyl-2,2-dichloroacetamide]",Effect (% visual injury) TRZAW Obs,[1]; [11],0%
same,Effect (% visual injury) TRZAW Obs,[1]; [12],0%
same,Effect (% visual injury) TRZAW Obs,[1]; [13],0%
same,Effect (% visual injury) HORVS Obs,[2]; [11],0%
same,Effect (% visual injury) HORVS Obs,[2]; [12],0%
same,Effect (% visual injury) HORVS Obs,[2]; [13],0%
CCc1nc(C(=O)O)c(Cl)c(N)c1F [I-G-A],Effect (% visual injury) CAPBP Obs,[3]; herbicide 20 g ae/ha alone,100%
same,Effect (% visual injury) VIOTR Obs,[4]; herbicide 20 g ae/ha alone,60%
same,Effect (% visual injury) KCHSC Obs,[5]; herbicide 20 g ae/ha alone,20%
same,Effect (% visual injury) TRZAW Obs,[1]; [14],25%
same,Effect (% visual injury) CHEAL Obs,[6]; herbicide 20 g ae/ha alone,95%
same,Effect (% visual injury) CIRAR Obs,[7]; herbicide 20 g ae/ha alone,80%
same,Effect (% visual injury) SINAR Obs,[8]; herbicide 20 g ae/ha alone,97%
same,Effect (% visual injury) MATCH Obs,[9]; herbicide 20 g ae/ha alone,80%
same,Effect (% visual injury) HORVS Obs,[2]; [14],13%
same,Effect (% visual injury) AMARE Obs,[10]; herbicide 20 g ae/ha alone,20%
O=C1OC(=O)c2cccc3cccc1c23 [naphthalic anhydride],Effect (% visual injury) TRZAW Obs,[1]; in vivo,0%
same,Effect (% visual injury) HORVS Obs,[2]; in vivo,0%
"CC1COc2ccccc2N1C(=O)C(Cl)Cl (racemic) [benoxacor, (±)-4-(dichloroacetyl)-3,4-dihydro-3-methyl-2H-1,4-benzoxazine]",Effect (% visual injury) TRZAW Obs,[1]; in vivo,0%
same,Effect (% visual injury) HORVS Obs,[2]; in vivo,0%
"O=C(O)c1nc(C(Cl)(Cl)Cl)n(-c2ccc(Cl)cc2Cl)n1 [fenchlorazole, 1-(2,4-dichlorophenyl)-5-(trichloromethyl)-1H-1,2,4-triazole-3-carboxylic acid]",Effect (% visual injury) TRZAW Obs,[1]; [11],0%
same,Effect (% visual injury) TRZAW Obs,[1]; [12],0%
same,Effect (% visual injury) TRZAW Obs,[1]; [13],0%
same,Effect (% visual injury) HORVS Obs,[2]; [11],0%
same,Effect (% visual injury) HORVS Obs,[2]; [12],0%
same,Effect (% visual injury) HORVS Obs,[2]; [13],0%
"CCOC(=O)C1=NN(c2ccc(Cl)cc2Cl)C(C)(C(=O)OCC)C1 (racemic) [mefenpyr-diethyl, (RS)-1-(2,4-dichlorophenyl)-5-methyl-2-pyrazoline-3,5-dicarboxylate]",Effect (% visual injury) CAPBP Obs,[3]; safener 20 g ai/ha alone,0%
same,Effect (% visual injury) CAPBP Obs,[3]; safener 40 g ai/ha alone,0%
same,Effect (% visual injury) CAPBP Obs,[3]; safener 80 g ai/ha alone,0%
same,Effect (% visual injury) VIOTR Obs,[4]; safener 20 g ai/ha alone,0%
same,Effect (% visual injury) VIOTR Obs,[4]; safener 40 g ai/ha alone,0%
same,Effect (% visual injury) VIOTR Obs,[4]; safener 80 g ai/ha alone,0%
same,Effect (% visual injury) KCHSC Obs,[5]; safener 20 g ai/ha alone,0%
same,Effect (% visual injury) KCHSC Obs,[5]; safener 40 g ai/ha alone,0%
same,Effect (% visual injury) KCHSC Obs,[5]; safener 80 g ai/ha alone,0%
same,Effect (% visual injury) TRZAW Obs,[1]; [11],0%
same,Effect (% visual injury) TRZAW Obs,[1]; [12],0%
same,Effect (% visual injury) TRZAW Obs,[1]; [13],0%
same,Effect (% visual injury) CHEAL Obs,[6]; safener 20 g ai/ha alone,0%
same,Effect (% visual injury) CHEAL Obs,[6]; safener 40 g ai/ha alone,0%
same,Effect (% visual injury) CHEAL Obs,[6]; safener 80 g ai/ha alone,0%
same,Effect (% visual injury) CIRAR Obs,[7]; safener 20 g ai/ha alone,0%
same,Effect (% visual injury) CIRAR Obs,[7]; safener 40 g ai/ha alone,0%
same,Effect (% visual injury) CIRAR Obs,[7]; safener 80 g ai/ha alone,0%
same,Effect (% visual injury) SINAR Obs,[8]; safener 20 g ai/ha alone,0%
same,Effect (% visual injury) SINAR Obs,[8]; safener 40 g ai/ha alone,0%
same,Effect (% visual injury) SINAR Obs,[8]; safener 80 g ai/ha alone,0%
same,Effect (% visual injury) MATCH Obs,[9]; safener 20 g ai/ha alone,0%
same,Effect (% visual injury) MATCH Obs,[9]; safener 40 g ai/ha alone,0%
same,Effect (% visual injury) MATCH Obs,[9]; safener 80 g ai/ha alone,0%
same,Effect (% visual injury) HORVS Obs,[2]; [11],0%
same,Effect (% visual injury) HORVS Obs,[2]; [12],0%
same,Effect (% visual injury) HORVS Obs,[2]; [13],0%
same,Effect (% visual injury) AMARE Obs,[10]; safener 20 g ai/ha alone,0%
same,Effect (% visual injury) AMARE Obs,[10]; safener 40 g ai/ha alone,0%
same,Effect (% visual injury) AMARE Obs,[10]; safener 80 g ai/ha alone,0%
"Clc1cc(Cl)nc(-c2ccccc2)n1 [fenclorim, 4,6-dichloro-2-phenylpyrimidine]",Effect (% visual injury) TRZAW Obs,[1]; in vivo,0%
same,Effect (% visual injury) HORVS Obs,[2]; in vivo,0%
"NC(=O)NS(=O)(=O)c1ccccc1Cl [2-CBSU, N-(aminocarbonyl)-2-chlorobenzenesulfonamide]",Effect (% visual injury) TRZAW Obs,[1]; in vivo,0%
same,Effect (% visual injury) HORVS Obs,[2]; in vivo,0%

# Reference: patent publication US20170042151A1, “SAFENED HERBICIDAL COMPOSITIONS COMPRISING PYRIDINE CARBOXYLIC ACIDS” (Dow AgroSciences LLC, priority 2015, published 2017)
